Laboratory results as given in ChEMBL document CHEMBL1151286, “Nostocarboline: isolation and synthesis of a new cholinesterase inhibitor from Nostoc 78-12A” (J Nat Prod, 2005).
Where “and” joins values, the source holds several entries; their conditions need not be identical. Equal entries are not always repeated.

Molecular target: Cholinesterase (Equus caballus, UniProt P81908)
Assay: Inhibition of horse serum BChE by Ellman's reaction

Cholinesterase, sequence (P81908 whole entry): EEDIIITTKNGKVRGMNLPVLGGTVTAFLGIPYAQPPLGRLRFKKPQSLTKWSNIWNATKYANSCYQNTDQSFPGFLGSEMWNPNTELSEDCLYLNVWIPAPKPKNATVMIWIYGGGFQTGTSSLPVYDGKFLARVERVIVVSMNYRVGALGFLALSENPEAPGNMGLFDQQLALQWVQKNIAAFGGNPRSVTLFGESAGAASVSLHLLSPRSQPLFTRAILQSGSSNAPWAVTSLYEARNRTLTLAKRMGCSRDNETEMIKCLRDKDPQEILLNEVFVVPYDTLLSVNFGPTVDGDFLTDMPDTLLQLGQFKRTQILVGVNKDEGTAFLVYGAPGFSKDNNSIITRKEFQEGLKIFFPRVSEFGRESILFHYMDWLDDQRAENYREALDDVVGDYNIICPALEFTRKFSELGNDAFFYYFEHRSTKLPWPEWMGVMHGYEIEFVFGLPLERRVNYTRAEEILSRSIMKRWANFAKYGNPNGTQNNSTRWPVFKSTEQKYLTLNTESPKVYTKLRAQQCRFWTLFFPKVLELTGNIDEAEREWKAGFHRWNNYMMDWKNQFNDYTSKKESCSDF

SMILES	IC50
C[n+]1ccc2c(c1)[nH]c1ccccc12	11.2 µM
C[n+]1ccc2c(c1)[nH]c1ccc(Cl)cc12 [NOSTOCARBOLINE]	19.4 µM and 13.2 µM
